Assay results as given in ChEMBL document CHEMBL4321843, “Discovery of small-molecule candidates against inflammatory bowel disease” (Eur J Med Chem, 2020).

Key:
Assay type in all cases: functional
Mus musculus [1] = assay: Anti-colitis activity in C57BL/6 (B6) mouse model of DSS-induced colitis assessed as disease activity index at 100 mg/kg, ig pretreated for 3 days followed by DSS treatment for 7 days (reference value: 5.67 +/- 1.03)
Rattus norvegicus [2] = assay: Antiinflammatory activity in Sprague-Dawley rat model of acetic acid-induced colitis assessed as reduction in IFNgamma level in serum at 50 mg/kg, po administered for 7 consecutive days and measured on day 8 by ELISA method
Rattus norvegicus [3] = assay: Anti-colitis activity in Sprague-Dawley rat model of acetic acid-induced colitis assessed as colon mucosa damage index at 50 mg/kg, po administered for 7 consecutive days and measured on day 8 (reference value: 3.3 +/- 0.6)
Rattus norvegicus [4] = assay: Anti-colitis activity in Sprague-Dawley rat model of acetic acid-induced colitis assessed as histological scores at 50 mg/kg, po administered for 7 consecutive days and measured on day 8 (reference value: 9.3 +/- 2.8)
Rattus norvegicus [5] = assay: Anti-colitis activity in Sprague-Dawley rat model of acetic acid-induced colitis assessed as disease activity index at 50 mg/kg, po administered for 7 consecutive days and measured on day 8 (reference value: 3.9 +/- 0.4)
Mus musculus [6] = assay: Anti-colitis activity in ICR mouse model of DSS-induced colitis assessed as inhibition of DSS-induced colorectum shortening at 6 mg, po for 14 days relative to control
Mus musculus [7] = assay: Anti-colitis activity in ICR mouse model of DSS-induced colitis assessed as reduction in DSS-induced body weight loss at 6 mg, po for 14 days relative to control; design: scale not given: the % may be the effect or the level left

With O=C(O)[C@H]1O[C@@H](Oc2cc3oc(-c4ccccc4)cc(=O)c3c(O)c2O)[C@H](O)[C@@H](O)[C@@H]1O [BAICALIN] the Activity_index (Mus musculus [1]) was 3.33.

O=C(O[C@@H]1Cc2c(O)cc(O)cc2O[C@@H]1c1cc(O)c(O)c(O)c1)c1cc(O)c(O)c(O)c1 [EPIGALOCATECHIN GALLATE] was tested, and the Activity (Rattus norvegicus [2]) was 33.3 pg/mL, the Activity_index (Rattus norvegicus [3]) was 1.5 and the Activity (Rattus norvegicus [4]) was 4.6. It also gave an Activity_index (Rattus norvegicus [5]) of 1.1.

In the case of O=c1c(O)c(-c2ccc(O)c(O)c2)oc2cc(O)cc(O)c12 [QUERCETIN], the “inhibition (INH)” value (Mus musculus [6]) is reported as 18% and the Activity (Mus musculus [7]) is reported as 21%.

C[C@@H]1O[C@@H](OC[C@H]2O[C@@H](Oc3c(-c4ccc(O)c(O)c4)oc4cc(O)cc(O)c4c3=O)[C@H](O)[C@@H](O)[C@@H]2O)[C@H](O)[C@H](O)[C@H]1O [RUTIN] was tested, and the “inhibition (INH)” value (Mus musculus [6]) was 73% and the Activity (Mus musculus [7]) was 54%.
